From ChEMBL document CHEMBL3046019, “Prenylated xanthones: antiproliferative effects and enhancement of the growth inhibitory action of 4-hydroxytamoxifen in estrogen receptor-positive breast cancer cell line” (2012)
The source made the active and inactive calls. The rule behind the calls is not given here.

How the values were obtained:
MDA-MB-231 [1] = test: Antiproliferative activity against estrogen receptor negative Homo sapiens (human) MDA-MB-231 cells at 0.05 uM after 48 hr by SRB assay; assay type: functional, cell-based
NCI-H460 = test: Growth inhibition of Homo sapiens (human) NCI-H460 cells after 48 hr by [3H]-thymidine incorporation assay; assay type: functional
MCF7 [2] = test: Antiproliferative activity against estrogen receptor positive Homo sapiens (human) MCF7 cells after 48 hr by SRB assay; assay type: functional, cell-based
MDA-MB-231 [3] = test: Growth inhibition of estrogen receptor negative Homo sapiens (human) MDA-MB-231 cells after 48 hr by [3H]-thymidine incorporation assay; assay type: functional
MDA-MB-231 [4] = test: Antiproliferative activity against estrogen receptor negative Homo sapiens (human) MDA-MB-231 cells after 48 hr by SRB assay; assay type: functional, cell-based
MCF7 [5] = test: Antiproliferative activity against estrogen receptor positive Homo sapiens (human) MCF7 cells in steroid free medium after 48 hr by SRB assay; assay type: functional, cell-based
MCF7 [6] = test: Antiproliferative activity against estrogen receptor positive Homo sapiens (human) MCF7 cells in steroid free medium after 48 hr by SRB assay in presence of ER antagonist 4-OHT; assay type: functional, cell-based
MCF7 [7] = test: Antiproliferative activity against estrogen receptor positive Homo sapiens (human) MCF7 cells at 0.05 uM after 48 hr by SRB assay; assay type: functional, cell-based
MCF7 [8] = test: Antiproliferative activity against estrogen receptor positive Homo sapiens (human) MCF7 cells in complete medium after 48 hr by SRB assay; assay type: functional, cell-based
MCF7 [9] = test: Growth inhibition of estrogen receptor positive Homo sapiens (human) MCF7 cells after 48 hr by [3H]-thymidine incorporation assay; assay type: functional

SMILES	Activity (MDA-MB-231 [1])	GI50 (NCI-H460) [µM]	Activity (MCF7 [2])	GI50 (MDA-MB-231 [3]) [µM]	Activity (MDA-MB-231 [4])	Activity (MCF7 [5])	Activity (MCF7 [6])	Activity (MCF7 [7])	Activity (MCF7 [8])	GI50 (MCF7 [9]) [µM]
CC1(C)CCc2cc3c(=O)c4ccccc4oc3c(O)c2O1 [DIHYDRO-12-HYDROXY-2,2-DIMETHYL-2H,6H-PYRANO[3,2-B]XANTHEN-6-ONE]	Active	22	Dose-dependent effect	29	Dose-dependent effect	Dose-dependent effect	Active	Active	Dose-dependent effect	5.3
CC(C)=CCOc1ccc2c(=O)c3ccccc3oc2c1O	Active	20.4	Dose-dependent effect	29.1	Dose-dependent effect	Dose-dependent effect	–	Active	Dose-dependent effect	14.2
CC(C)=CCOc1ccc2c(=O)c3ccccc3oc2c1OCC=C(C)C	–	30.7	–	39	–	–	–	–	–	21.8
